Source: ChEMBL document CHEMBL1134815, “3,3a-Dihydropyrano[4,3,2-de]quinazolin-2(1H)-ones are potent non-nucleoside reverse transcriptase inhibitors” (Bioorg Med Chem Lett, 2001)

How the values were obtained:
[1] = biological target: Human immunodeficiency virus type 1 reverse transcriptase (Human immunodeficiency virus 1, UniProt Q72547); test: Tested for inhibitory concentration against HIV-1 non-nucleoside reverse transcriptase
[2] = system: Human immunodeficiency virus type 1 reverse transcriptase (Human immunodeficiency virus 1), Q72547 [K103N]
Description: Inhibitory concentration against wild-type virus K103N and HIV-1 RT mutant in a whole cell antiviral assay

[3] = biological target: Human immunodeficiency virus type 1 reverse transcriptase (Human immunodeficiency virus 1) (UniProt Q72547)
Description: Inhibitory concentration against HIV-1 reverse transcriptase

[4] = system: HIV-1 reverse transcriptase (Human immunodeficiency virus 1); test: Inhibitory concentration against wild-type virus K103N/[…] and HIV-1 RT double mutant in whole cell antiviral assay
[5] = system: HIV-1 reverse transcriptase (Human immunodeficiency virus 1); test: Inhibitory concentration against wild-type virus K103N mutant in a whole cell antiviral assay
[6] = system: HIV-1 reverse transcriptase (Human immunodeficiency virus 1); test: Inhibitory concentration against wild-type virus K103N/[…] and HIVdouble mutant in a whole cell antiviral assay

SMILES	IC50 [1] [µM]	IC90 [2] [µM]	IC90 [3] [µM]	IC90 [4] [µM]	IC90 [5] [µM]	IC90 [6] [µM]
COc1c(Cl)ccc2c1C(C#CC1CC1)(C(F)(F)F)NC(=O)N2 (stereo unspecified)	0.07	0.0075	0.0035			
O=C1Nc2ccc(Cl)c3c2C(C(F)(F)F)(C=C(c2cccnc2)O3)N1 (stereo unspecified)	0.122	0.076	0.0046	0.897		
O=C1Nc2ccc(Cl)cc2[C@@](/C=C/C2CC2)(C(F)(F)F)N1					0.027	1.69
COc1c(Cl)ccc2c1C(C#Cc1cccnc1)(C(F)(F)F)NC(=O)N2 (stereo unspecified)	0.139	0.147	0.0071	2.54		
O=C1Nc2ccc(Cl)c3c2C(C(F)(F)F)(C=C(c2ccccc2)O3)N1 (stereo unspecified)	0.244	0.046	0.0082	1.66		
O=C1Nc2ccc(Cl)c(O)c2C(C#Cc2ccccc2)(C(F)(F)F)N1 (stereo unspecified)	0.174	0.03	0.0068	1.94		
O=C1Nc2ccc(Cl)cc2[C@@](C#CC2CC2)(C(F)(F)F)N1				1.1		
O=C1Nc2ccc(Cl)c(O)c2C(C#CC2CC2)(C(F)(F)F)N1 (stereo unspecified)	0.054	0.028	0.0036	3.02		
Fc1ccc2c3c1S/C(=C\c1cccnc1)C3(C(F)(F)F)NC(S)=N2 (stereo unspecified)		0.084	0.007			
COc1c(Cl)ccc2c1C(C#Cc1ccccc1)(C(F)(F)F)NC(=O)N2 (stereo unspecified)	0.144	0.113	0.0079	5.51		
O=C1Nc2ccc(Cl)c3c2C(C(F)(F)F)(C=C(C2CC2)O3)N1 (stereo unspecified)	0.09	0.076	0.0036			
O=C1Nc2ccc(Cl)cc2C(C#Cc2ccccc2)(C(F)(F)F)N1 (stereo unspecified)		0.007				
